Literature values in publication PMC11758220, “Identification of a Privileged Scaffold for Inhibition of Sterol Transport Proteins through the Synthesis and Ring Distortion of Diverse, Pseudo-Natural Products” (ACS Central Science, 2025).

Target: T1, STARD4 (Homo sapiens, UniProt Q96DR4, C75S)
T1 construct: STARD4(2-205; C75S); made in house; host or cells: E. coli BL21(DE3)
T1 sequence (Q96DR4 2-205 C75S): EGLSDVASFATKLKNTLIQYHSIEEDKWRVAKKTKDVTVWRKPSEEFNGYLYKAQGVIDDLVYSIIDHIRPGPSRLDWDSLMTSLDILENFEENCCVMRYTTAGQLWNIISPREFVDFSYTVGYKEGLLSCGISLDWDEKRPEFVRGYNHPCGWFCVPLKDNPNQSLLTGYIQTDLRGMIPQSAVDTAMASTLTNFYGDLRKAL
Set-up: method as in Depta et al.[43]
Details: data reproduced; ref Depta et al.[43]; read-out: STARD4 Kd,app (DSF); cited from earlier work

For CCN(CC)CCO[C@H]1CC[C@@]2(C)C(=CC[C@@H]3[C@@H]2CC[C@]2(C)C(=O)CC[C@@H]32)C1 [Compound U18666A, reference compound], the Kd is given as > 30 µM.
